System: CHO cell lines (Cell line A and Cell line B)
Format: cell-based, Chinese Hamster
Procedure: To test for the effect of toxicity of high polyoxypropylene-polyoxyethylene block copolymer (LUTROL® F68) concentration on cells, two CHO cell lines (Cell line A and Cell line B) expressing different monoclonal antibodies were carried over 10 passages (at 3 days/passage), at an initial seeding density of 8×10^5 cells/ml in 250 ml shake flasks with cell culture media containing 1, 2, 3, 4 or 5 g/L polyoxypropylene-polyoxyethylene block copolymer (LUTROL® F68).
An overall increase in cell density was observed (3.4-6.5×10^6 cells/ml) after 3 days. Viable cell density was normalized to the 1 g/L condition to enable comparison between the different polyoxypropylene-polyoxyethylene block copolymer (LUTROL® F68) concentrations.
The cells grown in media containing 3, 4 or 5 g/L polyoxypropylene-polyoxyethylene block copolymer (LUTROL® F68) were consistently higher over the passages, in which a 10% increase in cell density was measured compared to the 1 g/L condition (p<0.01) (FIG. 7A). The viability was also greater for the higher polyoxypropylene-polyoxyethylene block copolymer (LUTROL® F68) cultures (mean >95%) (FIG. 7B). […] The variation of viable cell density, % viability.

poloxamer 188 [LUTROL® F68]
cell diameter compared to the 1 g/L condition: increased slightly | increase in cell density compared to the 1 g/L condition: 10% | viability (mean): > 95%

Reference: US11427848B2, “Methods for harvesting mammalian cell cultures” (Amgen Inc., priority 2014, dated 2022)
